Results reported in US20030055065A1, “Tricyclic amide and urea compounds useful for inhibition of G-protein function and for treatment of proliferative diseases” (priority 1993, published 2003).
pIC50: −log10 of the molar value. Read-outs that look alike come from different tables or passages of the source.

Molecular target: T1, farnesyl protein transferase (FPT), partially purified from rat brain (Rattus norvegicus, UniProt Q02293+Q04631)
T1 construct: were partially purified from rat brain by ammonium sulfate fractionation followed by Q-Sepharose
Test: Inhibition of farnesyl protein transferase (transfer of [3H]farnesyl to Ras-CVLS)
Type: biochemical
Procedure: 1. In vitro enzyme assays: Inhibition of farnesyl protein transferase and geranylgeranyl protein transferase.
Human farnesyl protein transferase was also expressed in E. coli, using cDNA clones encoding both the α and β subunits. […] Human farnesyl protein transferase was partially-purified from the soluble protein fraction of E. coli as described above. […] Two forms of val^12-Ha-Ras protein were prepared as substrates for these enzymes, differing in their carboxy terminal sequence. One form terminated in cysteine-valine-leucine-serine (Ras-CVLS) the other in cystein-valine-leucine-leucine (Ras-CVLL). Ras-CVLS is a substrate for the farnesyl protein transferase while Ras-CVLL is a substrate for geranylgeranyl protein transferase I. The cDNAs encoding these proteins were constructed so that the proteins contain an amino-terminal extension of 6 histidine residues. Both proteins were expressed in Escherichia coli and purified using metal chelate affinity chromatography. The radiolabelled isoprenyl pyrophosphate substrates, [^3H]farnesyl pyrophosphate and [3H]geranylgeranyl pyrophosphate, were purchased from DuPont/New England Nuclear.
The reaction was allowed to proceed for 30 minutes at room temperature and then stopped with 0.5 ml of 4% sodium dodecyl sulfate (SDS) followed by 0.5 ml of cold 30% trichloracetic acid (TCA). Samples were allowed to sit on ice for 45 minutes and precipitated Ras protein was then collected on GF/C filter paper mats using a Brandel cell harvester. […] Percent inhibition was calculated relative to the DMSO vehicle control.

[1] = Ras-CVLS farnesylation, partially purified rat brain FPT, read-out: FPT IC50
[2] = enzyme inhibition, read-out: FPT IC50

T1 sequence (Q02293 whole entry, one chain of several): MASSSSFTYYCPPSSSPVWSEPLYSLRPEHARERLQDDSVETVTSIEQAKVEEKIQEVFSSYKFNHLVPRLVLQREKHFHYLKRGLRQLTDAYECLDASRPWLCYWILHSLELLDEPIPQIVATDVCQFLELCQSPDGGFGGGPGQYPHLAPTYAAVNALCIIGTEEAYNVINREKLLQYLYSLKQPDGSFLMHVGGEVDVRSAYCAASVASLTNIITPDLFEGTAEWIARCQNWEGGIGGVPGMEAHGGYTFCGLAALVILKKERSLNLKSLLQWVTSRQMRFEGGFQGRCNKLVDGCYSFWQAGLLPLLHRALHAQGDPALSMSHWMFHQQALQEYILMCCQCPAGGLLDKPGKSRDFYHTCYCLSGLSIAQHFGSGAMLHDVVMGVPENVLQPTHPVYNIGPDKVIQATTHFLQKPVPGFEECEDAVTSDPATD

| pIC50 [2] | SMILES | also measured |
| --- | --- | --- |
| 5.51 | O=C(Cc1ccnc(OCc2ccccc2)c1)N1CCC(=C2c3ccc(Cl)cc3CCc3cc(Br)cnc32)CC1 [Example 411-DD] |  |
| 5.74 | O=C(Cc1ccnc(N2CCCCC2)c1)N1CCC(=C2c3ccc(Cl)cc3CCc3cc(Br)cnc32)CC1 [Example 411-FF] |  |
| 6.19 | O=C(Cc1ccncc1)N1CCC(=C2c3ccc(Cl)cc3CCc3cc(F)cnc32)CC1 [Example 411-M] |  |
| ~5.70 | O=C(Cc1cc[n+]([O-])cc1)N1CCC(=C2c3ccc(Cl)cc3CCc3cc(F)cnc32)CC1 [Example 411-N] | FPT inhibition at the concentration in parentheses ((1.3) μM): 44(1.3) |
| 5.68 | CN1CCCC(CC(=O)N2CCC(=C3c4ccc(Cl)cc4CCc4cc(F)cnc43)CC2)C1 (stereo not shown) [Example 411-S] |  |
| 6.24 | O=C(Cc1cccnc1)N1CCC(=C2c3ccc(Cl)cc3CCc3cc(Cl)cnc32)CC1 [Example 411-T] |  |
| 5.95 | O=C(Cc1ccc[n+]([O-])c1)N1CCC(=C2c3ccc(Cl)cc3CCc3cc(Cl)cnc32)CC1 [Example 411-U] |  |
| 6.57 | CN1CCCC(CC(=O)N2CCC(=C3c4ccc(Cl)cc4CCc4cc(Cl)cnc43)CC2)C1 (stereo not shown) [Example 411-V] |  |
| 6.35 | CN1CCC(CC(=O)N2CCC(=C3c4ccc(Cl)cc4CCc4cc(Cl)cnc43)CC2)CC1 [Example 411-X] |  |
| < 5.92 | O=C(Nc1cc[n+]([O-])cc1)N1CCC(=C2c3ccc(Cl)cc3CCc3cc(Cl)ccc32)CC1 [Example 422-A] | FPT inhibition at the concentration in parentheses ((1.2) μM): 22 (1.2) |
| 6.22 | O=C(Cc1cc[n+]([O-])cc1)N1CCC(=C2c3ccc(Cl)cc3CCc3cc(Cl)ccc32)CC1 [Example 422] |  |
| 6.19 | CN1CCC(CC(=O)N2CCN([C@H]3c4ccc(Cl)cc4CCc4cccnc43)CC2)CC1 [Example 425-N] |  |
| 5.74 | O=C(Nc1cc[n+]([O-])cc1)N1CCN(C2c3ccc(Cl)cc3CCc3cccnc32)CC1 (stereo not shown) [Example 427] |  |
| 5.96 | O=C(CC1CCCNC1)N1CCN(C2c3ccc(Cl)cc3CCc3cccnc32)CC1 (stereo not shown) [Example 428-A] |  |
| 5.89 | COC(=O)N1CCC(CC(=O)N2CCN(C3c4ccc(Cl)cc4CCc4cccnc43)CC2)CC1 (stereo not shown) [Example 430] |  |
| 6.04 | CCNC(=O)N1CCC(CC(=O)N2CCN(C3c4ccc(Cl)cc4CCc4cccnc43)CC2)CC1 (stereo not shown) [Example 431-B] |  |
| 6.00 | CC(C)(C)NC(=O)N1CCC(CC(=O)N2CCN(C3c4ccc(Cl)cc4CCc4cccnc43)CC2)CC1 (stereo not shown) [Example 431-D] |  |
| 5.76 | NC(=O)N1CCCC(CC(=O)N2CCN(C3c4ccc(Cl)cc4CCc4cccnc43)CC2)C1 (stereo not shown) [Example 431-F] |  |
| 5.46 | COC(=O)c1ccc2c(c1)CCc1cccnc1C2=C1CCN(C(=O)Cc2ccncc2)CC1 [Example 434-A] |  |

Further lines, the compound ahead of its results:

| SMILES | pIC50 [2] | also measured |
| --- | --- | --- |
| O=C(Cc1ccncc1)N1CCC(C2c3ccc(Cl)cc3C([N+](=O)[O-])=Cc3cccnc32)CC1 (stereo not shown) [Example 410-L] |  | pIC50 [1]: 5.54 |
| CN1CCC(CC(=O)N2CCC(=C3c4ccc(Cl)cc4CCc4c3n(C)cc(Br)c4=O)CC2)CC1 [Example 410-M] |  | pIC50 [1]: ~4.92 |
| O=C(Cc1ccnc(-n2ccnc2)c1)N1CCC(=C2c3ccc(Cl)cc3CCc3cc(Br)cnc32)CC1 [Example 410-T] |  | pIC50 [1]: 5.74 |
| CSc1cc(CC(=O)N2CCC(=C3c4ccc(Cl)cc4CCc4cc(Br)cnc43)CC2)ccn1 [Example 410-V] |  | pIC50 [1]: 5.93 |
| CC1(C2CCN(C(=O)Cc3ccncc3)CC2)c2ccc(Cl)cc2CCc2cccnc21 (stereo not shown) [Example 410] |  | pIC50 [1]: 6.15 |
| O=C(Cc1ccncc1)N1CCC(=C2c3ccc(Cl)cc3CCc3ccc(O)nc32)CC1 [Example 411-C] | 5.22 |  |
| O=C(Cc1cc[nH]c(=O)c1)N1CCC(=C2c3ccc(Cl)cc3CCc3cc(Br)cnc32)CC1 [Example 411-EE] |  | FPT inhibition at the concentration in parentheses ((3.3) μM): 10 (3.3) |
| O=C(Cc1ccncc1)N1CCC(=C2c3cc([N+](=O)[O-])c(Cl)cc3CCc3cccnc32)CC1 [Example 411-F] | 5.89 |  |
| O=C(Cc1ccncc1)N1CCC(=C2c3ccc(Cl)cc3CCc3cc(Cl)ccc32)CC1 [Example 411-L] | 6.09 |  |
| CC(C)(C(=O)N1CCC(=C2c3ccc(Cl)cc3CCc3cc(F)cnc32)CC1)c1cc[n+]([O-])cc1 [Example 411-O] | ~5.30 | FPT inhibition at the concentration in parentheses ((4) μM): 39 (4) |
| O=C(Cc1ccc[n+]([O-])c1)N1CCC(=C2c3ccc(Cl)cc3CCc3cc(F)cnc32)CC1 [Example 411-Q] | ~5.00 | FPT inhibition at the concentration in parentheses ((4.3) μM): 33 (4.3) |
| CN1CCC(CC(=O)N2CCC(=C3c4ccc(Cl)cc4CCc4cc(F)cnc43)CC2)CC1 [Example 411-R] | ~5.40 | FPT inhibition at the concentration in parentheses ((1.3) μM): 29 (1.30) |
| O=C(Cc1ccc[n+]([O-])c1)N1CCC(C2c3ccc(Cl)cc3CCc3cc(Br)cnc32)CC1 (stereo not shown) [Example 411-Z] | 5.82 |  |
| O=C(Cn1cncn1)N1CCC(=C2c3ccc(Cl)cc3CCc3cc(Br)cnc32)CC1 [Example 412] |  | pIC50 [1]: 6.28 |
| O=C(Nc1ccccc1)N1CCC(=C2c3ccc(Cl)cc3CCc3c(Cl)ccnc32)CC1 [Example 414-A] | 5.72 |  |
| O=C(Cc1cc[n+]([O-])cc1)N1CCC(=C2c3ccc(Cl)cc3C=Cc3cccnc32)CC1 [Example 417-A] | 6.07 |  |
| CC(=O)ON=C1Cc2cccnc2C(=C2CCN(C(=O)Cc3ccncc3)CC2)c2ccc(Cl)cc21 [Example 420] | 6.64 |  |
| CCN(CC)c1cnc2c(c1)CCc1cc(Cl)ccc1C2=C1CCN(C(=O)Cc2ccncc2)CC1 [Example 424-A] |  | IC50 [1]: 1000 µM; FPT IC50 (μM) column, second line printed as 'x (y)' (Table 22, no key shown, presumably % inhibition (concentration in μM)): 22 (4) |
| CCNc1cnc2c(c1)CCc1cc(Cl)ccc1C2=C1CCN(C(=O)Cc2ccncc2)CC1 [Example 424] |  | pIC50 [1]: 5.89 |
| CC(C)(C(=O)N1CCN(C2c3ccc(Cl)cc3CCc3cccnc32)CC1)c1cc[n+]([O-])cc1 (stereo not shown) [Example 425-A] | 5.66 |  |
| CC(C)(C(=O)N1CCN(C2c3ccc(Cl)cc3CCc3cccnc32)CC1)c1ccc[n+]([O-])c1 (stereo not shown) [Example 425-C] | 5.90 |  |

| SMILES | pIC50 [2] | also measured |
| --- | --- | --- |
| O=C(Cc1ccc[n+]([O-])c1)N1CCN([C@@H]2c3ccc(Cl)cc3CCc3cccnc32)CC1 [Example 425-F] |  | pIC50 (FPT IC50, enzyme inhibition): 5.15 |
| O=C(Cc1ccc[n+]([O-])c1)N1CCN([C@H]2c3ccc(Cl)cc3CCc3cccnc32)CC1 [Example 425-G] |  | pIC50 (FPT IC50, enzyme inhibition): 5.64 |
| CN1CCC(CC(=O)N2CCN([C@@H]3c4ccc(Cl)cc4CCc4cccnc43)CC2)CC1 [Example 425-M] | 5.74 |  |
| CN1CCCC(CC(=O)N2CCN([C@@H]3c4ccc(Cl)cc4CCc4cccnc43)CC2)C1 (stereo partly shown) [Example 425-R] | 5.77 |  |
| CN1CCCC(CC(=O)N2CCN([C@H]3c4ccc(Cl)cc4CCc4cccnc43)CC2)C1 (stereo partly shown) [Example 425-S] | 6.22 |  |
| O=C(Nc1ccc[n+]([O-])c1)N1CCN(C2c3ccc(Cl)cc3CCc3cccnc32)CC1 (stereo not shown) [Example 427-A] | 5.66 |  |
| O=C(Nc1cc[n+]([O-])cc1)N1CCN(C2c3ccc(Cl)cc3CCc3cc(Br)cnc32)CC1 (stereo not shown) [Example 427-B] | 6.68 |  |
| O=C(Nc1ccc[n+]([O-])c1)N1CCN(C2c3ccc(Cl)cc3CCc3cc(Br)cnc32)CC1 (stereo not shown) [Example 427-C] | 6.62 |  |
| CCN1CCC(CC(=O)N2CCN(C3c4ccc(Cl)cc4CCc4cccnc43)CC2)CC1 (stereo not shown) [Example 429] | 5.90 |  |
| COC(=O)N1CCCC(CC(=O)N2CCN(C3c4ccc(Cl)cc4CCc4cccnc43)CC2)C1 (stereo not shown) [Example 430-A] | 5.15 |  |
| CNC(=O)N1CCC(CC(=O)N2CCN(C3c4ccc(Cl)cc4CCc4cccnc43)CC2)CC1 (stereo not shown) [Example 431-A] | 5.98 |  |
| CCCNC(=O)N1CCC(CC(=O)N2CCN(C3c4ccc(Cl)cc4CCc4cccnc43)CC2)CC1 (stereo not shown) [Example 431-C] | 6.06 |  |
| CNC(=S)N1CCC(CC(=O)N2CCN(C3c4ccc(Cl)cc4CCc4cccnc43)CC2)CC1 (stereo not shown) [Example 431-E] | 6.06 |  |
| CNC(=O)N1CCCC(CC(=O)N2CCN(C3c4ccc(Cl)cc4CCc4cccnc43)CC2)C1 (stereo not shown) [Example 431-G] | 5.15 |  |
| NC(=O)N1CCC(CC(=O)N2CCN(C3c4ccc(Cl)cc4CCc4cccnc43)CC2)CC1 (stereo not shown) [Example 431] | 6.09 |  |
| CN1CCCC(NC(=O)N2CCN(C3c4ccc(Cl)cc4CCc4cccnc43)CC2)C1 (stereo not shown) [Example 432] | 6.18 |  |
| N[C@@H](CO)C(=O)N1CCC(CC(=O)N2CCN(C3c4ccc(Cl)cc4CCc4cccnc43)CC2)CC1 (stereo partly shown) [Example 433-A] |  | pIC50 [1]: 5.96 |
| CSCC[C@H](N)C(=O)N1CCC(CC(=O)N2CCN(C3c4ccc(Cl)cc4CCc4cccnc43)CC2)CC1 (stereo partly shown) [Example 433-B] |  | pIC50 [1]: 5.72 |
| NCC(=O)N1CCC(CC(=O)N2CCN(C3c4ccc(Cl)cc4CCc4cccnc43)CC2)CC1 (stereo not shown) [Example 433-C] |  | pIC50 [1]: 5.60 |
| C[C@H](N)C(=O)N1CCC(CC(=O)N2CCN(C3c4ccc(Cl)cc4CCc4cccnc43)CC2)CC1 (stereo partly shown) [Example 433] |  | pIC50 [1]: 5.60 |
| NC(=O)c1ccc2c(c1)CCc1cccnc1C2=C1CCN(C(=O)Cc2ccncc2)CC1 [Example 436-D] |  | pIC50 [1]: 6.12 |
